Entries after “also recorded” stand apart in the source; their conditions may differ.
Columns and labels:
[1] = molecular target: USP7 catalytic domain (Homo sapiens, UniProt Q93009); test: Ub-Rho110 DUB assay, Table 2, USP7 catalytic domain; format: biochemical; details: read-out: Ub-Rho110 IC50, USP7 cat
Method: (§2) Biochemical USP7 assays using Ubiquitin-Rho110 as a substrate: The final assay conditions were as follows: The Reaction Buffer consisted of: 50 mM Tris (pH 7.5), 0.01% (v/v) Triton X-100, 2.5 mM Dithiothreitol, 0.1% (w/v) bovine gamma globulin (Sigma cat #G5009-25G); USP7, full-length, native C-Terminus, 0.2 nM; the substrate, Ubiquitin-Rho110 (Boston Biochem cat #U-555), 1 uM. Reactions were carried out for 1 hour at room temperature, in black 20 μL volume polystyrene ProxiPlate 384 F Plus® (PerkinElmer cat #6008260).
(§3) Test compounds, including a control USP7 inhibitor (Ub-aldehyde, Boston Biochem cat #U-201) were serially diluted in DMSO, in 384 well clear V-bottom polypropylene plates (Greiner cat #781280). Compounds in DMSO were diluted 10-fold into Reaction Buffer, to achieve 3-fold the final desired concentration. The substrate, Ubiquitin-Rho110 (Boston Biochem cat #U-555), was prepared at 3 μM (3-fold the final concentration) and 5 ul was dispensed into the reaction plate. 5 ul of the compounds (diluted in Reaction Buffer at 3-fold the final concentration) were transferred to the reaction plate. 5 ul of 0.6 nM USP7 (diluted in Reaction Buffer at 3-fold the final concentration) was transferred to the reaction plate to initiate the reaction. After 1 hour incubation at room temperature the reaction was quenched by the addition of 5 ul of 400 mM acetic acid. The enzymatic product was measured by quantifying the fluorescence signal of cleaved Rhodamine-110 using excitation at 485 nm and emission at 535 nm. When pre-incubation of USP7 with compounds was required, the order of addition of reagents was modified to pre-mix the compounds with USP7 (with a 1 hour incubation period), prior to the addition of the substrate and the initiation of the reaction period. Percentage inhibition values were calculated relative to a no enzyme control and a uninhibited enzyme control. Curve fitting and IC50 calculations were carried out using Genedata Screener software.

[2] = molecular target: T1, USP47 (Homo sapiens, UniProt Q96K76); test: Ub-Rho110 DUB assay, Table 2, USP47; format: biochemical
T1 sequence (Q96K76 1-1375): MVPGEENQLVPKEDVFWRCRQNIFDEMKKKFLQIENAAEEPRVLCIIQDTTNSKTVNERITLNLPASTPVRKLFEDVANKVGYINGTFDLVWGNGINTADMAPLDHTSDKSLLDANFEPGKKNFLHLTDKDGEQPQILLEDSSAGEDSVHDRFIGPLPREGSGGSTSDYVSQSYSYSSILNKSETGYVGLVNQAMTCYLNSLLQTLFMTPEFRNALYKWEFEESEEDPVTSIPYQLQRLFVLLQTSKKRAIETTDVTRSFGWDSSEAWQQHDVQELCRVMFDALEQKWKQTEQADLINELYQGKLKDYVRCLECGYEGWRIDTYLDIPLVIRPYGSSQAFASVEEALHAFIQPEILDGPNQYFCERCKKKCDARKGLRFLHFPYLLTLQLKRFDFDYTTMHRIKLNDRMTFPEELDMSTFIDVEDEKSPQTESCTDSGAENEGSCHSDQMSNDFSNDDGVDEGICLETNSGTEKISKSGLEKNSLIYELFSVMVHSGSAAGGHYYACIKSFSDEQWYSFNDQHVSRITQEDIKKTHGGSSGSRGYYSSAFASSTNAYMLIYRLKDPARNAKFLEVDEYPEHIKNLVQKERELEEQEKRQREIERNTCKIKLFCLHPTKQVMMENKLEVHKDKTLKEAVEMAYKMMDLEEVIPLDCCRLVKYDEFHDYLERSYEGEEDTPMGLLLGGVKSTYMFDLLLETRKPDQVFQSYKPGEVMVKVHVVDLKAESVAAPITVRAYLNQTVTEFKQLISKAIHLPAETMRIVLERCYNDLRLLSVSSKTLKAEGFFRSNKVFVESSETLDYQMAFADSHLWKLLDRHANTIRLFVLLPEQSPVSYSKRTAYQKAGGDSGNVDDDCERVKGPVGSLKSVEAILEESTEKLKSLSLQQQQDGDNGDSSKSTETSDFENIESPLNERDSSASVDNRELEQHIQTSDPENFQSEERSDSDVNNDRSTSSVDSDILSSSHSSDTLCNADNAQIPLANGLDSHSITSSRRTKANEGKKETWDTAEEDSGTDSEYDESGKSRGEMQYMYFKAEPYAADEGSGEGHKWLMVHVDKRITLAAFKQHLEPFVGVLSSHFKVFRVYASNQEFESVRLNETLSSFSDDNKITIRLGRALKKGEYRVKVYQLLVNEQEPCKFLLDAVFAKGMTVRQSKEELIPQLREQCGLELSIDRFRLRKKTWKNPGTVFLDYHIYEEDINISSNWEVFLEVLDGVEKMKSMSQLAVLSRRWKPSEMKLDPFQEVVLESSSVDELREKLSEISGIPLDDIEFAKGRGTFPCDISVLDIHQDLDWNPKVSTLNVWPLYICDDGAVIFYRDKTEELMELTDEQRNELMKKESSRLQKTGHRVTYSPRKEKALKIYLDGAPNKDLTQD

[3] = molecular target: T2, USP7 (Homo sapiens, UniProt Q93009); test: Ub-Rho110 DUB assay, Table 2, USP7; format: biochemical
T2 construct: USP7, full-length, native C-Terminus, 0.2 nM
Method: as §2, §3

[4] = molecular target: T3, USP5 (Homo sapiens, UniProt P45974); test: Ub-Rho110 DUB assay, Table 2, USP5
T3 sequence (P45974 1-858): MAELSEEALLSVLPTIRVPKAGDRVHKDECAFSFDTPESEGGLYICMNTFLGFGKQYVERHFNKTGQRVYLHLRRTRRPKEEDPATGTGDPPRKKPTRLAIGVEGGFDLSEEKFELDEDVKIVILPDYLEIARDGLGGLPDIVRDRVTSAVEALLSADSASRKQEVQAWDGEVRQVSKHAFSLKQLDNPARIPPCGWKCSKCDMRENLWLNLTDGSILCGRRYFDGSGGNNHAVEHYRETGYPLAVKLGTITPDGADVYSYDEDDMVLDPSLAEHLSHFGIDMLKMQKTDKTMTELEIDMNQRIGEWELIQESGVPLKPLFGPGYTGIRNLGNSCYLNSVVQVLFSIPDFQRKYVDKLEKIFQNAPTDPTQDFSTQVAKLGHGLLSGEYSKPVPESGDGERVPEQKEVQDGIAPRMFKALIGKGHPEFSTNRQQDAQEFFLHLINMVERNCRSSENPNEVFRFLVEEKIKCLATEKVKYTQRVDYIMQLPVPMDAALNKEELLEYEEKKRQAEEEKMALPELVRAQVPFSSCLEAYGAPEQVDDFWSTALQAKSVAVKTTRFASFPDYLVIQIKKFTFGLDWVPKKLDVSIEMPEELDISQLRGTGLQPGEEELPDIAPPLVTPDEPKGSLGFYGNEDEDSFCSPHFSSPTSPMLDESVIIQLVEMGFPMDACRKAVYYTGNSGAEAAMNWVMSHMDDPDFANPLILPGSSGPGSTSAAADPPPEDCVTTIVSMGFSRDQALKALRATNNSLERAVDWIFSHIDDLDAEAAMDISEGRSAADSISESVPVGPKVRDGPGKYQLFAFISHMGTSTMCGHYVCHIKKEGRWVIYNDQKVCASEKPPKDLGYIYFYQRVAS

[5] = system: p21 in KMS-21BM and KMS-28PE multiple myeloma cells; test: Western blot in multiple myeloma cells (FIG. 13B); format: cell-based; details: compared to 89
Method: (§1) In 24-well plates, 0.10-0.15×10^6 (adherent) or 0.5×10^6 (suspension) cells were treated with 15 μM or 2.5 μM compounds, respectively, for 24 h in low serum prior to lysis for Western Blot analysis.

[6] = molecular target: T4, endogenous USP7 (Homo sapiens, UniProt Q93009); test: Activity-based profiling of deubiquitinases with HA-tagged ubiquitin probes, western blot (FIG. 5, 6); format: biochemical; details: 15 μM, 293T cell lysate
T4 construct: endogenous in cells; host or cells: 293T cell lysate
Method: 293T cells at 80% confluency are harvested by rinsing the plate one time with 10 ml PBS followed by scraping. Cells are cleared by spinning them for 3 min at 350 g at 4° C. and the pellet is flash-frozen in liquid nitrogen and stored at −80° C. until lysis. Frozen cells are lysed by quickly re-thawing them in Buffer A (50 mM Tris-HCl pH 7.5, 250 mM Sucrose, 5 mM TCEP, 2 mM ATP, 50 μM phenylmethylsulfonyl fluoride (PMSF), 120 mM NaCl, 5 mM MgCl2) and the lysate is cleared by centrifugation by spinning at 18,000 g at 4° C. […] Subsequently, the 4 samples are all incubated with 6.6 μg/ml of either one of the following activity-based DUB probes (the same probe for each of the 4 samples): HA-tagged ubiquitin vinyl sulfone (Boston Biochem, Cambridge, Mass.), HA-tagged ubiquitin propargylamine (UbiQ Bio BV, Amsterdam, The Netherlands) or HA-tagged ubiquitin vinylmethyl ester (UbiQ Bio BV, Amsterdam, The Netherlands), 1200 rpm, at 25° C., for 1 hr. The reaction is terminated by adding a 20% SDS solution to a final concentration of 0.4% for at least 30 min at room temperature, rotating. Subsequently, the reacted lysate is diluted 10× with Buffer B (50 mM Tris-HCl pH 7.5, 150 mM NaCl, 5 mM EDTA, protease inhibitor cocktail EDTA-free (Roche, Mannheim, Germany), 50 μM PMSF, 0.5% NP-40). 60-100 μl slurry depending on input protein amount of pre-equilibrated anti-HA affinity matrix (Roche, Mannheim, Germany) are added and HA-tagged proteins are immunopurified with this matrix by rotating the samples over night at 4° C. The next day the beads are washed with the following buffers in this order: three times ice-cold Buffer B, one time ice-cold Buffer B NP-40 free, and three times ice-cold 15 mM TEAB pH 8.5. Spins between washes are performed at 2000 g and 4° C. […]

[7] = system: p53, p21, MDM2 and E6AP in RKO, RKO-E6, Vibo and SiHA cell lines; test: Western blot in RKO, RKO-E6, Vibo and SiHA cells (FIG. 14A); format: cell-based
Method: as §1

T4 sequence (Q93009 whole entry): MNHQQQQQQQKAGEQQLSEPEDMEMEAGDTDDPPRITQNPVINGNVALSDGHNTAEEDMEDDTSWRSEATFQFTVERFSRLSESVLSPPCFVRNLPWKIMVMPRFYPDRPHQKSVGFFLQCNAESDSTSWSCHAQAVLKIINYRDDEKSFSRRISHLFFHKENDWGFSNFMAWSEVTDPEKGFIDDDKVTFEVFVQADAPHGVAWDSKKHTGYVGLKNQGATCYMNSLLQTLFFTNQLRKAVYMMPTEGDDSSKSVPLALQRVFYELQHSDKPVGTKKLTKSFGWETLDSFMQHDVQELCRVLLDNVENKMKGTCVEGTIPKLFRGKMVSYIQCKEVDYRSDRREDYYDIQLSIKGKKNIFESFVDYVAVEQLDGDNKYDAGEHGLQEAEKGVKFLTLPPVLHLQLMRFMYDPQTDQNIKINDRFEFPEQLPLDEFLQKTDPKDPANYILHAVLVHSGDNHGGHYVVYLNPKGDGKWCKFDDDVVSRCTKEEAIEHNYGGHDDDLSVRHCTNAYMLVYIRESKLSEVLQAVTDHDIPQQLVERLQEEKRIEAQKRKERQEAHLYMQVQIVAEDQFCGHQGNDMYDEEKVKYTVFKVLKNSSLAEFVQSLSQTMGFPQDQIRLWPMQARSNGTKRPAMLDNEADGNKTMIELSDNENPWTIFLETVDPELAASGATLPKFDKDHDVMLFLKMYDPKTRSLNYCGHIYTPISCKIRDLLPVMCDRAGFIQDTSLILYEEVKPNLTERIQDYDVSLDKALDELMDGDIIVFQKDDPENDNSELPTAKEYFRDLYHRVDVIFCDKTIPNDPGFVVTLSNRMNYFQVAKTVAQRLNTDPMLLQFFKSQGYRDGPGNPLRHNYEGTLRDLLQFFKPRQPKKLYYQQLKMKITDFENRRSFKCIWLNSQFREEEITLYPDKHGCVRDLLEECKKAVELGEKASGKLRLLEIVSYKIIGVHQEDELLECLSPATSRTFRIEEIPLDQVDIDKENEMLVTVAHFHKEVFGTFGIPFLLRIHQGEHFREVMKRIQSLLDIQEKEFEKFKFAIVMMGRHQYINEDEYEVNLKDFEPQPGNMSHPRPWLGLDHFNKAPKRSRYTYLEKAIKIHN
T2 sequence (Q93009 whole entry): as above
Sequence of USP7 catalytic domain (Q93009 214-521 limits assumed): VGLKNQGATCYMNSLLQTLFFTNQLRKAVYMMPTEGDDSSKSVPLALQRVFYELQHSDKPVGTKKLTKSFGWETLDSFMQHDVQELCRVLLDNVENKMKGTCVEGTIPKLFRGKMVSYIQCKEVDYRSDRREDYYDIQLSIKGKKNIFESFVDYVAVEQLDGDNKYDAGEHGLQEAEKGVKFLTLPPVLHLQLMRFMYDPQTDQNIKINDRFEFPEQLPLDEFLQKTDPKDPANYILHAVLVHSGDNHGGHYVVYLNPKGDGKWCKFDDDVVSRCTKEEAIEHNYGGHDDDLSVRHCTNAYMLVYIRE

- IC50 [1]: 430 nM
- IC50 [2]: > 200000 nM
- IC50 [3]: 980 nM
- IC50 [4]: 18600 nM
- HA-probe-conjugated band corresponding to USP7 ([6]; western blot): decreased
SMILES: CCc1c(-c2ccc3[nH]ncc3c2)cnc(N)c1-c1ccc(O)cc1 [Compound 88, 4-[2-amino-4-ethyl-5-(1H-indazol-5-yl)-3-pyridyl]phenol]
- selectivity of antagonism of USP7 catalytic activity over the DUBs evaluated ([3]; conclusion from Table 2 (USP7, USP7 cat, USP47, USP5)): selective antagonists of USP7 catalytic activity
- p21 levels (western blot) [5]: increases p21 levels
- selective antagonism of endogenous USP7 over other DUBs ([6]; evaluated by western blotting): selective DUB inhibition; also recorded: selectively antagonizes endogenous USP7 over other DUBs
- effect on p53, p21, MDM2 and E6AP (western blot) [7]: stabilize p53, p21, and destabilize MDM2 and E6AP
